Counter-ions that a name gives are not always drawn.
Experiments:
[1] = target: catalytic domain of human PARP14 (Homo sapiens (Human), UniProt Q460N5); assay: Enzymatic assay for inhibition of PARP14 (DELFIA, auto-modification by biotin-NAD); assay type: biochemical; settings: 50 nM PARP14, 3 μM biotin-NAD
Method: An N-terminal His-TEV fusion tag was used to purify the protein from cell lysates. The His-TEV tag was left on the protein for use in the enzymatic assay.
Enzymatic inhibition of PARP14 was measured using a dissociation-enhanced lanthanide fluorescence immunoassay (DELFIA) monitoring the auto-modification of PARP14 by biotinylated nicotinamide adenine dinucleotide (biotin-NAD). 1 μL of a dose response curve of each test compound was spotted in 384-well nickel-coated white microplates (Thermo) using a Mosquito (TTP Labtech). Reactions were performed in a 50 μL volume by adding 40 μL of PARP14 in assay buffer (20 mM HEPES pH==8, 100 mM NaCl, 0.1% bovine serum albumin, 2 mM DTT and 0.002%0 Tween20), incubating with test compound at 25° C. for 30 min, then adding 10 μL of biotin-NAD (Biolog). The final concentrations of PARP14 and biotin-NAD are 50 nM and 3 μM, respectively. Reactions proceeded at 25° C. for 3 h, then were quenched with 5 μL of 10 mM unmodified nicotinamide adenine dinucleotide (Sigma-Aldrich). […] After a 5 min incubation the plate was read on an Envision platereader equipped with a LANCE/DELFIA top mirror (Perkin Elmer) using excitation of 340 nm and emission of 615 nm to measure the amount of Europium present in each well, informing on the amount of biotin-NAD that was transferred in the automodification reaction. […]

[2] = system: 4T1 cells; assay: Tumor growth in 4T1 murine syngeneic model; assay type: in vivo, mouse (BALB/c); settings: 4T1 orthotopic, female BALB/c mice, 500 mg/kg PO BID, study terminated on D20
Source text: FIGS. 3A and 4A illustrate that a PARP14 inhibitor (Example 235) reduces tumor growth in the murine syngeneic models (A) 4T1 and (B) LL/2. For the 4T1 study (FIGS. 3A and 3B), female BALB/c mice were inoculated orthotopically in the mammary fat pad with 1×10^5 4T1 cells (ATCC, CRL-2539™) for tumor development. Seven days after tumor inoculation, 16 mice with tumor size ranging from 41-78 mm^3 (average tumor size 56 mm^3) were selected and assigned into 2 groups using stratified randomization with 8 mice in each group based upon their tumor volumes. The treatments were started from the next day post randomization (defined as randomization day DO) and were treated with vehicle (0.5% methylcellulose+0.2% Tween 80), or the compound of Example 235 (500 mg/kg PO BID*21 days). The tumor sizes were measured three times per week during the treatment. The entire study was terminated on D20.
(§1) Statistical significance, calculated using 2 way ANOVA multiple comparisons in which each treatment group was compared to vehicle control, is indicated by an asterisk. Statistics were performed on groups with less than 20% animal loss (D20 for 4T1, D17 for LL/2). Survival benefit was determined for the LL/2 study (FIG. 4B). Individual mice were euthanized once they reached the termination endpoint (TV>2000 mm3). […]

[3] = system: LL/2 cells; assay: Tumor growth and survival in LL/2 murine syngeneic model; assay type: in vivo, mouse (C57BL/6); settings: LL/2 subcutaneous, female C57BL/6 mice, 500 mg/kg PO BID, study terminated on D21
Source text: For the LL/2 study (FIGS. 4A-4C), female C57BL/6 mice were inoculated subcutaneously in the right flank with 5×10^5 LL/2 cells (ATCC, CRL-1642™) for tumor development. Five days after tumor inoculation, 16 mice with tumor size ranging from 37-72 mm^3 (average tumor size 51 mm^3) were selected and assigned into 2 groups using stratified randomization with 8 mice in each group based upon their tumor volumes. The treatments were started from the next day post randomization (defined as randomization day DO) and were treated with vehicle (0.5% methylcellulose+0.2% Tween 80), or the compound of Example 235 (500 mg/kg PO BID*21 days). The tumor sizes were measured three times per week during the treatment. The entire study was terminated on D21.
as §1, with “mm3). The time from treatment initiation to termination was deemed as its survival time and plotted in a Kaplan-Meier survival curve format. Mice remaining at study end date of 21 days were euthanized at day 21 after treatment initiation.” for “mm3).”

catalytic domain of human PARP14, sequence (Q460N5 1611-1801): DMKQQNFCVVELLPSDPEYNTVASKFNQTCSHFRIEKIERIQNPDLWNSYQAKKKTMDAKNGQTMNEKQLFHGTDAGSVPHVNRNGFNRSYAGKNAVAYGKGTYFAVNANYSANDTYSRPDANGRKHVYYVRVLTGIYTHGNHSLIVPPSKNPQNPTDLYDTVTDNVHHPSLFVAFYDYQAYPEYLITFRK

Structure (SMILES)	IC50 [1]	Tumor growth inhibition versus vehicle group [2]	Tumor growth inhibition versus vehicle group [3]
O=c1[nH]c(CSC2CCOCC2)nc2cc(N[C@H]3CCC[C@@H]3F)cc(F)c12 (racemic) [Example 305]	< 1 µM		
Cc1cccc2c(=O)[nH]c(CS[C@@H]3CCC[C@H](CN(C)C)C3)nc12 (relative stereo) [Example 72, 2-((((cis)-3-((Dimethylamino)methyl)cyclohexyl)thio)methyl)-8-methyl quinazolin-4(3H)-one Trifluoroacetate]	> 10 µM		
O=c1[nH]c(CS[C@H]2CC[C@H](O)CC2)nc2cc(OCC3CC3)cc(F)c12 [Example 235, 7-(Cyclopropylmethoxy)-5-fluoro-2-(((trans-4-hydroxycyclohexyl)thio)methyl)quinazolin-4(3H)-one]		31%	63%
